Laboratory results taken from PMC8302598, “Rapid discovery of self-assembling peptides with one-bead one-compound peptide library” (Nature Communications, 2021).
“Also recorded” adds a separate entry of the source.

Legend:
[1] = tested on: HeLa cells; assay: CCK-8 cell viability assay; format: cell-based; settings: incubation 24 and 72 h, n=3
Experimental: (§1) Finally, we examined the biological effects and cellular distribution of the eight self-assembling peptides on HeLa cells. […] In order to observe the nanomaterials under fluorescent microscopy, each peptide preparation was spiked with 3% of the same peptide N-terminally labeled with FITC, and then added to HeLa cells at a final concentration of 40 μM. […] After 4 h of incubation with the peptide assemblies, the cells were observed under a fluorescent microscope (Figs. 4c, d and Supplementary 22). […] It is important to note that LDFPI nanoparticle was small (8 nm diameter) even after 4 h incubation. Its small size may in part explain its ability to pass through the nuclear pore complexes[32],[33]. […] To evaluate the cell uptake mechanism of peptide assemblies (YFTEF, ISDNL, and FGFDP) into the cytoplasm, we treated the cells at 4 °C or with various endocytosis inhibitors (Supplementary Fig. 23).
TentaGel S Resin was purchased from Rapp Polymere (Germany, loading 0.31 mmol/g). 9-Fluorenylmethoxycarbonyl (Fmoc)-protected amino acids, 2-(1H-benzotriazole-1-yl)-1,1,3,3- tetramethyluronium hexafluoro-phosphate (HBTU), and Wang resin were obtained from GL Biochem (China). Trifluoroacetic acid (TFA), fluorescein isothiocyanate (FITC), N-methyl morpholine (NMM), piperidine, and N,N′-dimethylformamide (DMF) were all from Beijing Chemical Plant (China). 1,2-Ethanedithiol (EDT) was purchased from Alfa Aesar (USA). Dimethyl sulfoxide (DMSO) was purchased from Aldrich Chemical Co. and used without further purification. Cyanogen bromide (CNBr) was from J&K Chemical (China). The HeLa cell lines were received from the Cell Culture Center of the Institute of Basic Medical Sciences, Chinese Academy of Medical Sciences (Beijing, China). Cell culture medium and fetal bovine serum were from WisentInc (Multicell, WisentInc, St. Bruno. The cell counting kit-8 assay (CCK-8) (Beyotime Institute of Biotechnology, China) was used. Hela cells were maintained Dulbecco’s modified eagle’s medium (DMEM) with 10% fetal bovine serum and 1% penicillin. All cells were cultured in a humidified atmosphere containing 5% CO2 at 37 °C.
Supplementary Figure 21 . a-h. CCK-8 cell viability assay for 8 pentapeptides (FTISD, ITSVV, YFTEF, ISDNL , LDFPI, FAGFT,
FGFDP, FFVDF) after incubation with HeLa cells for 24 and 72 h.
Standard Deviatio n (n=3).
(1 picture or pasted object on this page, not shown here)

[2] = tested on: HeLa cells; assay: Cellular uptake and distribution of FITC-labeled peptide assemblies (fluorescence/confocal microscopy); format: cell-based; settings: 40 μM (methods: 50 μM); for Cellular uptake: HeLa cells, 3% of peptide N-terminally FITC-labeled, 4 h incubation, fluorescence microscope; for Cellular distribution of peptide assemblies: live HeLa cells, 3% FITC-labeled peptide, 4 h, Lyso-Tracker Red, Hoechst
Experimental: as §1
Hela cell line was purchased from cell culture center of Institute of Basic Medical Sciences, Chinese Academy of Medical Sciences (Beijing, China). Hela cells cultured with pentapeptide nanomaterials (50 μM) were imaged using a Zeiss LSM710 confocal laser scanning microscope (Jena, Germany). The Hela cells were seeded in complete DMEM in a humidified atmosphere with 5% CO2 and then cultured at 37 °C overnight. Then, 1 mL of serum-free fresh medium containing pentapeptide (50 μM) was used for replacing the medium, and the cells were cultured for 4 h and washed with PBS three times before being imaged using a Zeiss LSM710 confocal laser scanning microscope with a 40× objective lens. The cell lines had been authenticated utilizing short tandem repeat DNA profiling. All cells were tested negative for cross-contamination of other human cells and mycoplasma contamination.
Supplementary Figure 22. Confocal microscopy of HeLa cells after incubation with FITC-labeled pentapeptide assemblies (from left to right: FT ISD, IT SVV, Y FT E F, ISDNL , L D FP I, FAG FT, FG FDP, FFVD F ) for 4 h; peptide concentration used was 50 μM. 3% of the assembled peptides was N-terminally labeled with FITC.
Supplementary Figure 23 . Cell uptake pathway analysis for FITC-labeled pentapeptide assemblies YFTEF, ISDNL and […]. a) CLSM images of HeLa cells incubated with pentapeptides (50 μ M ) at di fferent temperatures (37 or 4 °C) and in the presence of various endocytosis inhibitors, such as amiloride (2 mM), M-β-CD (5 mM), and chlorpromazine (50 μM). The scale bar is 10 μm. b) Relevant quantitative analysis of images from ‘a’. 3% of the assembled peptides was N-terminally labeled with FITC, E rror ba rs represent Standard Deviation (n=3). […]

Row | Substance | Cell toxicity (CCK-8 cell viability) [1] | Cellular uptake [2] | Cellular distribution of peptide assemblies [2]
1 | ISDNL [self-assembling pentapeptide identified from OBOC library] | No cell toxicity was observed | Obvious cellular uptake | distributed inside the lysosomes throughout the cytoplasm; also recorded: distribute only to the cytoplasm, in granular forms
2 | ITSVV [self-assembling pentapeptide identified from OBOC library] | No cell toxicity was observed | – | localized on the cell membrane; also recorded: staining of the cell membrane and minor staining of the cytoplasm
3 | YFTEF [self-assembling pentapeptide identified from OBOC library] | No cell toxicity was observed | Obvious cellular uptake | distributed throughout the cytoplasm but not the nucleus
4 | FAGFT [self-assembling pentapeptide identified from OBOC library] | No cell toxicity was observed | Obvious cellular uptake | mainly confine to the cytoplasm
5 | FGFDP [self-assembling pentapeptide identified from OBOC library] | No cell toxicity was observed | Obvious cellular uptake | distribute only to the cytoplasm, in granular forms
6 | FTISD [self-assembling pentapeptide identified from OBOC library] | No cell toxicity was observed | – | stained both the cell membrane and cytoplasm
7 | FFVDF [self-assembling pentapeptide identified from OBOC library, forms nanofibers] | No cell toxicity was observed | – | formed aggregates outside the cell; also recorded: formed some fluorescent aggregates outside the cells
8 | LDFPI [self-assembling pentapeptide identified from OBOC library] | No cell toxicity was observed | Obvious cellular uptake | localized to the nucleus and perinuclear areas
